In patent US20260337177A1, “TEAD CORE INHIBITORS FOR CANCER THERAPEUTICS” (University of Florida Research Foundation, Incorporated, priority 2023, published 2026):

How the values were obtained:
AML12 cells = test: AML12 normal liver cell growth inhibition (CCK8); type: cell-based; conditions: 10 μM; 3 days
TEADs = test: TEAD-specific 8×GTIIC-luciferase reporter assay; type: cell-based; conditions: 10 μM; 8×GTIIC-luciferase; read-out: Luciferase reporter assay inhibitory rate
Description: A series of compounds featuring a chloromethyl ketone moiety were synthesized (Schemes 1-4). The inhibitory rate of this series of compounds was tested using 8×GTIIC-luciferase reporter assay at 10 μM.
Next, the inhibition of TEAD transcription activity of compounds was tested varying the dosage using the 8×GTIIC-luciferase reporter assay. […] The aim was to determine whether its inhibition of TEAD transcription can lead to downregulation of the YAP-TEAD target genes. CTGF is one of the best characterized (bona fide) target gene of YAP and TAZ.
To further investigate the mechanism of the inhibitory effect of compounds in Huh7 cells, TEADs specific luciferase reporter assays were performed with compounds 22 and 12 at several concentrations. […] TEAD downstream gene expression patterns were evaluated in liver cancer cells Huh7, which has been evidenced with relative high expression of YAP and TEAD2.
HEK 293T cells were plated at 2×10^4 cells/well in a 96 well microplate and were transfected with 50 ng of 8×GTIIC-luciferase plasmid (Addgene #34615) and 0.5 ng of pRL-CMV (Promega #E226A) by using lipofectamine 3000 (Life Technologies #L3000). The 8×GTIIc-luciferase reporter is a Yap/Taz-activity reporter containing eight TEAD consensus binding sequences. After 6 h, transfected cells were treated with various concentrations of compounds or DMSO control. Luciferase signals were measured using the Dual Luciferase Reporter Assay System (Promega, E1960) according to the manufacturer's instructions. Experiments were performed in triplicate and repeated at least three times.

Huh7 cells = test: Huh7 cell proliferation assay (CCK8); type: cell-based, human; conditions: Homo sapiens, Huh-7, 72 h; 3 days; CCK8; mean ± SD of three independent experiments; read-out: Cell proliferation assay IC50, Huh7
Description: CCK8 assay kit was used to determine antiproliferative activity of synthesized compounds against Huh7 cell line. First, Huh7 cells were seeded into 96-well plates at a density of 3000 cells/well and incubated overnight. Cells were then co-incubated with compounds at 8 concentrations for 72 h. Then, the cell proliferation was determined by the CCK8 kit according to the standard protocol. Experiments were performed in triplicate.

SMILES	Inhibitory rate, AML12 (inhibitory percentage of AML12 cell growth) (AML12 cells) [%]	inhibition at 10 µM (TEADs) [%]	IC50 (Huh7 cells) [µM]
C=CC(=O)NCc1c[nH]c2cc(Cl)c(OCc3ccc4ccccc4c3)cc12 [Compound 9, N-((6-chloro-5-(naphthalen-2-ylmethoxy)-1H-indol-3-yl)methyl)acrylamide]	0	1.5	30.2 ± 2.5
N#C/C(=C\c1c[nH]c2cc(Cl)c(OCc3ccccc3)cc12)C(N)=O [Compound 16, (E)-3-(5-(benzyloxy)-6-chloro-1H-indol-3-yl)-2-cyanoacrylamide]	0		> 50
C=CC(=O)NCc1c[nH]c2cc(Cl)c(OCc3ccccc3)cc12 [Compound 11, N-((5-(benzyloxy)-6-chloro-1H-indol-3-yl)methyl)acrylamide]	0		> 50
O=C(CCl)c1c[nH]c2cc(Cl)c(OCc3cccc4ccccc34)cc12 [Compound 3, 2-chloro-1-(6-chloro-5-(naphthalen-1-ylmethoxy)-1H-indol-3-yl)ethan-1-one]	50.3	69.4	1.6 ± 0.3
O=C(CCl)c1c[nH]c2cc(Cl)c(OCc3ccccc3)cc12 [Compound 1, 1-(5-(benzyloxy)-6-chloro-1H-indol-3-yl)-2-chloroethan-1-one]	36.2	74.6	2.7 ± 0.2
C=CC(=O)NCc1c[nH]c2cc(Cl)c(OCc3cccc4ccccc34)cc12 [Compound 10, N-((6-chloro-5-(naphthalen-1-ylmethoxy)-1H-indol-3-yl)methyl)acrylamide]	0	10.6	14.4 ± 1.2
COc1cc2[nH]cc(C(=O)CCl)c2cc1OCc1cccc2ccccc12 [Compound 6, 2-chloro-1-(6-methoxy-5-(naphthalen-1-ylmethoxy)-1H-indol-3-yl)ethan-1-one]	62.1	64.5	2.5 ± 0.8
O=C(CCl)c1c[nH]c2cc(Cl)c(OCc3ccc(C(F)(F)F)cc3)cc12 [Compound 23, 2-chloro-1-(6-chloro-5-((4-(trifluoromethyl)benzyl)oxy)-1H-indol-3-yl)ethan-1-one]			16.9
O=C(CCl)c1c[nH]c2cc(Cl)c(OCc3ccc(C(F)(F)F)c(F)c3)cc12 [Compound 24, 2-chloro-1-(6-chloro-5-((3-fluoro-4-(trifluoromethyl)benzyl)oxy)-1H-indol-3-yl)ethan-1-one]			1.8
O=C(CCl)c1c[nH]c2ccc(OCc3ccccc3)cc12 [Compound 8, 1-(5-(benzyloxy)-1H-indol-3-yl)-2-chloroethan-1-one]		20.5	10.5 ± 0.9
O=C(CCl)c1c[nH]c2ccc(OCc3ccc4ccccc4c3)cc12 [Compound 7, 2-chloro-1-(5-(naphthalen-2-ylmethoxy)-1H-indol-3-yl)ethan-1-one]		5.3	> 20
N#C/C(=C\c1c[nH]c2cc(Cl)c(OCc3cccc(C(F)(F)F)c3)cc12)C(N)=O [Compound 21, 3-(6-chloro-5-((3-(trifluoromethyl)benzyl)oxy)-1H-indol-3-yl)-2-cyanoacrylamide]	97.1	59.7	
N#C/C(=C\c1c[nH]c2cc(Cl)c(OCc3cccc4ccccc34)cc12)C(N)=O [Compound 18, (E)-3-(6-chloro-5-(naphthalen-1-ylmethoxy)-1H-indol-3-yl)-2-cyanoacrylamide]	70.3	51.3	
N#C/C(=C\c1c[nH]c2cc(Cl)c(OCc3ccc4ccccc4n3)cc12)C(N)=O [Compound 20, (E)-3-(6-chloro-5-(quinolin-2-ylmethoxy)-1H-indol-3-yl)-2-cyanoacrylamide]	0		68.7 ± 5.4
